According to patent US20070128217A1 (priority 2003, published 2007):

Experiments:
[1] = tested on: antibodies in sera from SARS patients (sera 1a, 1b, 2, 6, 37, 62, London, SARS-yellow, SARS-green); assay type: binding, human; set-up: Binding of serum 6 to linear peptides of protein X1 of SARS-CoV Urbani / Binding of serum 37 to linear peptides of protein X1 of SARS-CoV Urbani / Binding of serum 6 to looped/cyclic peptide (PEPSCAN-ELISA) / Binding of serum 37 to looped/cyclic peptide (PEPSCAN-ELISA) / Binding of serum 37 to looped/cyclic peptides of protein X1 of SARS-CoV Urbani / Binding of serum 6 to linear peptides of protein X2 / Binding of serum 37 to linear peptides of protein X2 / Binding of serum 37 to looped/cyclic peptides of protein X2 of SARS-CoV Urbani / Binding of serum 6 to linear peptides of protein M of SARS-CoV Urbani / Binding of serum 37 to linear peptides of protein M of SARS-CoV Urbani / Binding of serum 6 to looped/cyclic peptides of protein M of SARS-CoV Urbani / Binding of serum 37 to looped/cyclic peptides of protein M of SARS-CoV Urbani / Binding of serum 6 to linear peptides of protein X3 of SARS-CoV Urbani / Binding of serum 37 to linear peptides of protein X3 of SARS-CoV Urbani / Binding of serum 37 to looped/cyclic peptides of protein X3 of SARS-CoV Urbani / Binding of serum 6 to linear peptides of protein X4 of SARS-CoV Urbani / Binding of serum 37 to linear peptides of protein X4 of SARS-CoV Urbani / Binding of serum 37 to looped/cyclic peptides of protein X4 of SARS-CoV Urbani / Binding of serum 6 to linear peptides of protein X5 of SARS-CoV Urbani / Binding of serum 37 to linear peptides of protein X5 of SARS-CoV Urbani / Binding of serum 37 to looped/cyclic peptides of protein X5 of SARS-CoV Urbani / Binding of serum 6 to linear peptides of protein N of SARS-CoV Urbani / Binding of serum 37 to linear peptides of protein N of SARS-CoV Urbani / Binding of serum 6 to linear peptide (PEPSCAN-ELISA) / Binding of serum 1a to looped/cyclic peptides of protein N of SARS-CoV Urbani / Binding of serum 1b to looped/cyclic peptides of protein N of SARS-CoV Urbani / Binding of serum 2 to looped/cyclic peptides of protein N of SARS-CoV Urbani / Binding of serum 6 to looped/cyclic peptides of protein N of SARS-CoV Urbani / Binding of serum 37 to looped/cyclic peptides of protein N of SARS-CoV Urbani / Binding of serum 62 to looped/cyclic peptides of protein N of SARS-CoV Urbani / Binding of serum London to looped/cyclic peptides of protein N of SARS-CoV Urbani / Binding of serum SARS-green to looped/cyclic peptides of protein N of SARS-CoV Urbani: unit not given here
[2] = tested on: control sera (pooled serum of ten healthy LUMC hospital workers; commercial negative donor pooled serum from the Dutch bloodbank); assay type: binding, human; set-up: Binding of Control serum LUMC to linear peptides / Binding of Control serum Blood-bank to linear peptides / Binding of Control serum LUMC to looped peptides / Binding of Control Serum Blood-Bank to Looped peptides / Binding of Control serum LUMC to linear peptides of the protein M of SARS-CoV Urbani / Binding of Control serum Blood-bank to linear peptides of the protein M of SARS-CoV Urbani / Binding of Control serum LUMC to looped peptides of the protein M of SARS-CoV Urbani / Binding of Control Serum Blood-Bank to Looped peptides of the protein M of SARS-CoV Urbani: unit not given here
[3] = tested on: rabbit serum obtained by immunizing a rabbit with the SARS-CoV strain Frankfurt 1; assay type: binding; set-up: Binding of a rabbit serum to linear peptides / Binding of a rabbit serum to looped peptides / Rabbit serum linear peptides / Rabbit serum looped peptides / Binding of a rabbit serum to linear peptides of protein N of SARS-CoV Urbani (Rabbit serum linear peptides) / Binding of a rabbit serum to looped/cyclic peptides of protein N of SARS-CoV Urbani (Rabbit serum looped peptides): unit not given here

## PVTLACFVLAAVYRI
[1]
  Binding of serum 1a to linear peptides of protein M of SARS-CoV Urbani: 0.7
  Binding of serum 1a to looped/cyclic peptides of protein M of SARS-CoV Urbani: 0.7
  Binding of serum 1b to linear peptides of protein M of SARS-CoV Urbani: 0.5
  Binding of serum 1b to looped/cyclic peptides of protein M of SARS-CoV Urbani: 0.6
  Binding of serum 2 to linear peptides of protein M of SARS-CoV Urbani: 0.5
  Binding of serum 2 to looped/cyclic peptides of protein M of SARS-CoV Urbani: 0.6
  Binding of serum 6 to linear peptides of protein M of SARS-CoV Urbani: 0.3
  Binding of serum 6 to looped/cyclic peptides of protein M of SARS-CoV Urbani: 0.7
  Binding of serum 37 to linear peptides of protein M of SARS-CoV Urbani: 0.6
  Binding of serum 37 to looped/cyclic peptides of protein M of SARS-CoV Urbani: 0.7
  Binding of serum 62 to linear peptides of protein M of SARS-CoV Urbani: 0.7
  Binding of serum 62 to looped/cyclic peptides of protein M of SARS-CoV Urbani: 0.7
  Binding of serum London to linear peptides of protein M of SARS-CoV Urbani: 0.3
  Binding of serum London to looped/cyclic peptides of protein M of SARS-CoV Urbani: 0.2
  Binding of serum SARS-green to linear peptides of protein M of SARS-CoV Urbani: 0.2
  Binding of serum SARS-green to looped/cyclic peptides of protein M of SARS-CoV Urbani: 0.2
  Binding of serum SARS-yellow to linear peptides of protein M of SARS-CoV Urbani: 0.0
  Binding of serum SARS-yellow to looped/cyclic peptides of protein M of SARS-CoV Urbani: 0.6
[2]
  Binding of Control Serum Blood-Bank to Looped peptides of the protein M of SARS-CoV Urbani: 0.6
  Binding of Control serum Blood-bank to linear peptides of the protein M of SARS-CoV Urbani: 0.5
  Binding of Control serum LUMC to linear peptides of the protein M of SARS-CoV Urbani: 0.2
  Binding of Control serum LUMC to looped peptides of the protein M of SARS-CoV Urbani: 0.7
[3]
  Rabbit serum linear peptides: 0.4
  Rabbit serum looped peptides: 0.3

## QCINACRIIMRCWLC
[1]
  Binding of serum 1a to linear peptides of protein X1 of SARS-CoV Urbani: 0.8
  Binding of serum 1a to looped/cyclic peptide (PEPSCAN-ELISA): 0.6
  Binding of serum 1b to linear peptides of protein X1 of SARS-CoV Urbani: 0.6
  Binding of serum 1b to looped/cyclic peptide (PEPSCAN-ELISA): 0.4
  Binding of serum 2 to linear peptides of protein X1 of SARS-CoV Urbani: 0.5
  Binding of serum 2 to looped/cyclic peptide (PEPSCAN-ELISA): 0.6
  Binding of serum 6 to linear peptides of protein X1 of SARS-CoV Urbani: 0.8
  Binding of serum 6 to looped/cyclic peptide (PEPSCAN-ELISA): 0.8
  Binding of serum 37 to linear peptides of protein X1 of SARS-CoV Urbani: 0.7
  Binding of serum 37 to looped/cyclic peptide (PEPSCAN-ELISA): 0.6
  Binding of serum 62 to linear peptides of protein X1 of SARS-CoV Urbani: 0.7
  Binding of serum 62 to looped/cyclic peptide (PEPSCAN-ELISA): 0.7
  Binding of serum London to linear peptides of protein X1 of SARS-CoV Urbani: 0.4
  Binding of serum London to looped/cyclic peptide (PEPSCAN-ELISA): 1.4
  Binding of serum SARS-green to linear peptides of protein X1 of SARS-CoV Urbani: 0.2
  Binding of serum SARS-green to looped/cyclic peptide (PEPSCAN-ELISA): 0.2
  Binding of serum SARS-yellow to linear peptides of protein X1 of SARS-CoV Urbani: 0.3
  Binding of serum SARS-yellow to looped/cyclic peptide (PEPSCAN-ELISA): 0.4
[2]
  Binding of Control Serum Blood-Bank to Looped peptides: 0.6
  Binding of Control serum Blood-bank to linear peptides: 0.9
  Binding of Control serum LUMC to linear peptides: 0.7
  Binding of Control serum LUMC to looped peptides: 0.7
[3]
  Recognition of the peptide by the rabbit serum: recognized

## QFICNLLLLFVTIYS
[1]
  Binding of serum 1a to linear peptides of protein X1 of SARS-CoV Urbani: 0.6
  Binding of serum 1a to looped/cyclic peptide (PEPSCAN-ELISA): 0.5
  Binding of serum 1b to linear peptides of protein X1 of SARS-CoV Urbani: 0.5
  Binding of serum 1b to looped/cyclic peptide (PEPSCAN-ELISA): 0.4
  Binding of serum 2 to linear peptides of protein X1 of SARS-CoV Urbani: 0.6
  Binding of serum 2 to looped/cyclic peptide (PEPSCAN-ELISA): 0.6
  Binding of serum 6 to linear peptides of protein X1 of SARS-CoV Urbani: 0.4
  Binding of serum 6 to looped/cyclic peptide (PEPSCAN-ELISA): 0.3
  Binding of serum 37 to linear peptides of protein X1 of SARS-CoV Urbani: 0.5
  Binding of serum 37 to looped/cyclic peptide (PEPSCAN-ELISA): 0.5
  Binding of serum 62 to linear peptides of protein X1 of SARS-CoV Urbani: 0.6
  Binding of serum 62 to looped/cyclic peptide (PEPSCAN-ELISA): 0.5
  Binding of serum London to linear peptides of protein X1 of SARS-CoV Urbani: 0.2
  Binding of serum London to looped/cyclic peptide (PEPSCAN-ELISA): 0.2
  Binding of serum SARS-green to linear peptides of protein X1 of SARS-CoV Urbani: 0.0
  Binding of serum SARS-green to looped/cyclic peptide (PEPSCAN-ELISA): 0.2
  Binding of serum SARS-yellow to linear peptides of protein X1 of SARS-CoV Urbani: 0.4
  Binding of serum SARS-yellow to looped/cyclic peptide (PEPSCAN-ELISA): 0.5
[2]
  Binding of Control Serum Blood-Bank to Looped peptides: 0.5
  Binding of Control serum Blood-bank to linear peptides: 0.6
  Binding of Control serum LUMC to linear peptides: 0.6
  Binding of Control serum LUMC to looped peptides: 0.5
[3]
  Binding of a rabbit serum to linear peptides: 0.3
  Binding of a rabbit serum to looped peptides: 0.5

## QFLYLYALIYFLQCI
[1]
  Binding of serum 1a to linear peptides of protein X1 of SARS-CoV Urbani: 0.7
  Binding of serum 1a to looped/cyclic peptide (PEPSCAN-ELISA): 0.5
  Binding of serum 1b to linear peptides of protein X1 of SARS-CoV Urbani: 0.5
  Binding of serum 1b to looped/cyclic peptide (PEPSCAN-ELISA): 0.3
  Binding of serum 2 to linear peptides of protein X1 of SARS-CoV Urbani: 0.5
  Binding of serum 2 to looped/cyclic peptide (PEPSCAN-ELISA): 0.3
  Binding of serum 6 to linear peptides of protein X1 of SARS-CoV Urbani: 0.4
  Binding of serum 6 to looped/cyclic peptide (PEPSCAN-ELISA): 0.2
  Binding of serum 37 to linear peptides of protein X1 of SARS-CoV Urbani: 0.6
  Binding of serum 37 to looped/cyclic peptide (PEPSCAN-ELISA): 0.5
  Binding of serum 62 to linear peptides of protein X1 of SARS-CoV Urbani: 0.5
  Binding of serum 62 to looped/cyclic peptide (PEPSCAN-ELISA): 0.5
  Binding of serum London to linear peptides of protein X1 of SARS-CoV Urbani: 0.2
  Binding of serum London to looped/cyclic peptide (PEPSCAN-ELISA): 0.2
  Binding of serum SARS-green to linear peptides of protein X1 of SARS-CoV Urbani: 0.2
  Binding of serum SARS-green to looped/cyclic peptide (PEPSCAN-ELISA): 0.2
  Binding of serum SARS-yellow to linear peptides of protein X1 of SARS-CoV Urbani: 0.5
  Binding of serum SARS-yellow to looped/cyclic peptide (PEPSCAN-ELISA): 0.3
[2]
  Binding of Control Serum Blood-Bank to Looped peptides: 0.5
  Binding of Control serum Blood-bank to linear peptides: 0.5
  Binding of Control serum LUMC to linear peptides: 0.4
  Binding of Control serum LUMC to looped peptides: 0.6
[3]
  Binding of a rabbit serum to linear peptides: 0.1
  Binding of a rabbit serum to looped peptides: 0.4

## QIHTIDGSSGVANPA
[1]
  Binding of serum 1a to linear peptides of protein X1 of SARS-CoV Urbani: 0.6
  Binding of serum 1a to looped/cyclic peptides of protein X1 of SARS-CoV Urbani: 0.4
  Binding of serum 1b to linear peptides of protein X1 of SARS-CoV Urbani: 0.5
  Binding of serum 1b to looped/cyclic peptides of protein X1 of SARS-CoV Urbani: 0.3
  Binding of serum 2 to linear peptides of protein X1 of SARS-CoV Urbani: 0.6
  Binding of serum 2 to looped/cyclic peptides of protein X1 of SARS-CoV Urbani: 0.4
  Binding of serum 6 to linear peptides of protein X1 of SARS-CoV Urbani: 0.5
  Binding of serum 6 to looped/cyclic peptides of protein X1 of SARS-CoV Urbani: 0.2
  Binding of serum 37 to linear peptides of protein X1 of SARS-CoV Urbani: 0.7
  Binding of serum 37 to looped/cyclic peptides of protein X1 of SARS-CoV Urbani: 0.4
  Binding of serum 62 to linear peptides of protein X1 of SARS-CoV Urbani: 0.6
  Binding of serum 62 to looped/cyclic peptides of protein X1 of SARS-CoV Urbani: 0.3
  Binding of serum London to linear peptides of protein X1 of SARS-CoV Urbani: 0.3
  Binding of serum London to looped/cyclic peptides of protein X1 of SARS-CoV Urbani: 0.2
  Binding of serum SARS-green to linear peptides of protein X1 of SARS-CoV Urbani: 0.4
  Binding of serum SARS-green to looped/cyclic peptides of protein X1 of SARS-CoV Urbani: 0.2
  Binding of serum SARS-yellow to linear peptides of protein X1 of SARS-CoV Urbani: 0.3
  Binding of serum SARS-yellow to looped/cyclic peptides of protein X1 of SARS-CoV Urbani: 0.1
[2]
  Binding of Control Serum Blood-Bank to Looped peptides: 0.2
  Binding of Control serum Blood-bank to linear peptides: 0.6
  Binding of Control serum LUMC to linear peptides: 0.6
  Binding of Control serum LUMC to looped peptides: 0.4
[3]
  Binding of a rabbit serum to linear peptides: 0.1
  Binding of a rabbit serum to looped peptides: 0.3
